Test results from US7378446B2, “Compound having anti-HCV activity and process for producing the same” (Chugai Seiyaku Kabushiki Kaisha, priority 2003, dated 2008).

Key:
in vitro = assay type: cell-based; settings: human; replicon cells, 3 days culture with compound, Cell Counting Kit 8, absorbance 450 nm; read-out: Cytotoxicity CC50
Protocol: (§1) A construct was prepared in which a luciferase gene derived from firefly was introduced as a reporter gene in HCV-RNA to assay the number of copies of HCV-RNA. The luciferase gene was introduced in the form of fusing with neomycin-resistance gene directly below the IRES (Internal Ribosome Entry Site) of the HCV gene in accordance with the method of Krieger, et al. (J. Virol. 75:4614). After synthesizing this RNA in vitro, it was introduced into Huh7 cell by electroporation and isolated as G418-resistant clone. Firefly luciferase HCV replicon cells (3-1) were suspended in Dulbecco's MEM (Gibco cat. no. 10569-010) containing 5% fetal bovine serum (Hyclone cat. no. SH30071.03), inoculated into the wells of a 96-well plate at 5000 cells/well and then cultured overnight at 37° C. and 5% CO2. Approximately 20 hours later, the diluted test compound was added at 10 μl per well followed by culturing for another 3 days. Two series of assay plates were prepared, and the assay was carried out using a white plate for one series and a clear plate for the other series. Following completion of culturing, the white plate was used for the Steady-Glo Luciferase Assay System (Promega cat. no. E2520). Namely, after adding 100 μl of reagent per well, mixing by a pipette 3 to 4 times and then allowing to stand for 5 minutes, luminescence was measured with the 1450 MicroBeta TRILUX (Wallac). Values obtained in the absence of cell addition were used as background values and subtracted from all values to calculate the IC50 (50% inhibitory concentration) of the drug based on a value of 0% inhibition for the value in the absence of addition of test compound.
The Cell Counting Kit 8 (Dojindo cat. no. CK04) was used to determine the cytotoxicity. Namely, 10 μl of Cell Counting Kit 8 were added to a clear plate and incubated for 30 to 60 minutes at 37° C. Absorbance at a wavelength of 450 nm and a control wavelength of 630 nm was measured with a 96-well plate reader. Values in the absence of cell addition were used as background values and subtracted from all values to calculate the CC50 (50% cell inhibitory concentration) of the drug based on a value of 0% inhibition for the value in the absence of addition of drug.

[1] = system: Firefly luciferase HCV replicon cells (3-1); assay: Replicon assay (firefly luciferase HCV replicon); assay type: cell-based; settings: Hepatitis C virus, 72 h; Huh7-derived luciferase HCV replicon cells, 3 days culture with compound, Steady-Glo luminescence
Protocol: as §1

Row | Structure (SMILES) | CC50 (in vitro) | IC50 [1]
1 | CCCCCCCC(=O)CCCCCC/C=C/[C@H](C(=O)N[C@@H](Cc1ccc(CNC(=O)OCC2c3ccccc3-c3ccccc32)cc1)C(=O)O)[C@@](O)(CC(=O)O)C(=O)O [Compound 91] | > 1000 nM | 8 nM
2 | CCCCCC(=O)CCCCCCCC/C=C/[C@H](C(=O)N[C@@H](Cc1ccc(OCCC(C)C)cc1)C(=O)O)[C@@](O)(CC(=O)O)C(=O)O [Compound 44] | > 1000 nM | 1 nM
3 | CCCCCCCC(=O)CCCCCC/C=C/[C@H](C(=O)N[C@@H](Cc1ccc(OC)c(OC)c1)C(=O)O)[C@@](O)(CC(=O)O)C(=O)O [Compound 23] | > 1000 nM | 17 nM
4 | CCCCCCCC(=O)CCCCCC/C=C/[C@H](C(=O)N[C@@H](Cc1ccc(-c2ccc(Cl)cc2)cc1)C(=O)O)[C@@](O)(CC(=O)O)C(=O)O [Compound 28] | > 1000 nM | 9 nM
5 | CCCCCCCC(=O)CCCCCC/C=C/[C@H](C(=O)N[C@@H](Cc1ccc(-c2ccc(S(=O)(=O)N(C)C)cc2)cc1)C(=O)O)[C@@](O)(CC(=O)O)C(=O)O [Compound 74] | > 1000 nM | 135 nM
6 | CCCCCCC(=O)CCCCCC/C=C/[C@H](C(=O)N[C@@H](Cc1ccc(Oc2ccccc2)cc1)C(=O)O)[C@@](O)(CC(=O)O)C(=O)O [Compound 103] | > 1000 nM | 11 nM
7 | CCCCCCCC(=O)CCCCCC/C=C/[C@H](C(=O)N[C@@H](Cc1ccc(Oc2cccc(C)c2)cc1)C(=O)O)[C@@](O)(CC(=O)O)C(=O)O [Compound 56] | > 1000 nM | 6 nM
8 | CC#CCCOc1ccc(C[C@H](NC(=O)[C@@H](/C=C/CCCCCCC(=O)CCCCCCC)[C@@](O)(CC(=O)O)C(=O)O)C(=O)O)cc1 [Compound 107] | > 1000 nM | 1 nM
9 | CCCCCCCC(=O)CCCCCC/C=C/[C@H](C(=O)N[C@@H](Cc1ccc(-c2ccc(F)cc2)cc1)C(=O)O)[C@@](O)(CC(=O)O)C(=O)O [Compound 29] | > 1000 nM | 6 nM
10 | CCCCCCCC(=O)CCCCCC/C=C/[C@H](C(=O)NC(Cc1ccc(OCCCC)cc1)C(=O)O)[C@@](O)(CC(=O)O)C(=O)O (stereo partly shown) [Compound 40] | > 1000 nM | 1 nM
11 | CCCCCCCC(=O)CCCCCC/C=C/[C@H](C(=O)N[C@@H](Cc1ccc(Oc2ccc(Cl)cc2)cc1)C(=O)O)[C@@](O)(CC(=O)O)C(=O)O [Compound 24] | > 1000 nM | 11 nM
12 | CCCCCCCC(=O)CCCCCC/C=C/[C@H](C(=O)N[C@@H](Cc1ccc(-c2cccc(F)c2)cc1)C(=O)O)[C@@](O)(CC(=O)O)C(=O)O [Compound 66] | > 1000 nM | 6 nM
13 | CCCCCCCC(=O)CCCCCC/C=C/[C@H](C(=O)N[C@@H](Cc1ccc(-c2c(C)noc2C)cc1)C(=O)O)[C@@](O)(CC(=O)O)C(=O)O [Compound 79] | > 1000 nM | 104 nM
14 | CCCCCCCC(=O)CCCCCC/C=C/[C@H](C(=O)N[C@@H](Cc1ccc(OCCCN)cc1)C(=O)O)[C@@](O)(CC(=O)O)C(=O)O [Compound 82] | > 1000 nM | 39 nM
15 | CCCCCCCC(=O)CCCCCC/C=C/[C@H](C(=O)N[C@@H](Cc1ccc(-c2cnc(OC)nc2)cc1)C(=O)O)[C@@](O)(CC(=O)O)C(=O)O [Compound 81] | > 1000 nM | 8 nM
16 | C#CCCCOc1ccc(C[C@H](NC(=O)[C@@H](/C=C/CCCCCCC(=O)CCCCCCC)[C@@](O)(CC(=O)O)C(=O)O)C(=O)O)cc1 [Compound 106] | > 1000 nM | 1 nM
17 | CCCCCCCC(=O)CCCCCC/C=C/[C@H](C(=O)NC(Cc1ccc(C(F)(F)F)cc1)C(=O)O)[C@@](O)(CC(=O)O)C(=O)O (stereo partly shown) [Compound 32] | > 1000 nM | 68 nM
18 | CCCCCCCC(=O)CCCCCC/C=C/[C@H](C(=O)N[C@@H](Cc1ccc(-c2ccc(S(C)(=O)=O)cc2)cc1)C(=O)O)[C@@](O)(CC(=O)O)C(=O)O [Compound 80] | > 1000 nM | 71 nM
19 | CCCCCCCC(=O)CCCCCC/C=C/[C@H](C(=O)N[C@@H](Cc1ccc(OCCN2CCOCC2)cc1)C(=O)O)[C@@](O)(CC(=O)O)C(=O)O [Compound 86] | > 1000 nM | 7 nM
20 | CCCCCCCC(=O)CCCCCC/C=C/[C@H](C(=O)N[C@@H](Cc1ccc(-c2ccsc2)cc1)C(=O)O)[C@@](O)(CC(=O)O)C(=O)O [Compound 31] | > 1000 nM | 12 nM
21 | CCCCCCCC(=O)CCCCCC/C=C/[C@H](C(=O)NC(Cc1ccc(OCCC)cc1)C(=O)O)[C@@](O)(CC(=O)O)C(=O)O (stereo partly shown) [Compound 41] | > 1000 nM | 2 nM

Row | Structure (SMILES) | CC50 (in vitro) | IC50 [1]
22 | CCCCCCC(=O)CCCCCC/C=C/[C@H](C(=O)N[C@@H](Cc1ccc(OCCC(C)C)cc1)C(=O)O)[C@](O)(CC(=O)O)C(=O)O [Compound 51] | > 1000 nM | 17 nM
23 | CCCCCCCC(=O)CCCCCC/C=C/[C@H](C(=O)N[C@@H](Cc1ccc(N(C)c2ccccc2)cc1)C(=O)O)[C@@](O)(CC(=O)O)C(=O)O [Compound 75] | > 1000 nM | 6 nM
24 | CCCCCCCC(=O)CCCCCC/C=C/[C@H](C(=O)N[C@@H](Cc1ccc(-c2ccc(N(C)C)cc2)cc1)C(=O)O)[C@@](O)(CC(=O)O)C(=O)O [Compound 68] | > 1000 nM | 2 nM
25 | CCCCCCCC(=O)CCCCCC/C=C/[C@H](C(=O)N[C@@H](Cc1ccc(Oc2ccc(F)cc2)cc1)C(=O)O)[C@@](O)(CC(=O)O)C(=O)O [Compound 25] | > 1000 nM | 9 nM
26 | CCCCCCCC(=O)CCCCCC/C=C/[C@H](C(=O)N[C@@H](Cc1ccc(-c2ccccc2F)cc1)C(=O)O)[C@@](O)(CC(=O)O)C(=O)O [Compound 65] | > 1000 nM | 2 nM
27 | CCCCCCCC(=O)CCCCCC/C=C/[C@H](C(=O)N[C@@H](Cc1ccc(-c2ccc(F)cc2F)cc1)C(=O)O)[C@@](O)(CC(=O)O)C(=O)O [Compound 30] | > 1000 nM | 8 nM
28 | CC(C)CCOc1ccc(C[C@H](NC(=O)[C@@H](/C=C/CCCCCCC(=O)CCC2CCCCC2)[C@](O)(CC(=O)O)C(=O)O)C(=O)O)cc1 [Compound 52] | > 1000 nM | 24 nM
29 | CCCCCCCC(=O)CCCCCC/C=C/[C@H](C(=O)N[C@@H](Cc1ccc(-c2ccc(C)cc2)cc1)C(=O)O)[C@@](O)(CC(=O)O)C(=O)O [Compound 59] | > 1000 nM | 3 nM
30 | CCCCCCCC(=O)CCCCCC/C=C/[C@H](C(=O)N[C@@H](Cc1ccc(OCCN2CCNCC2)cc1)C(=O)O)[C@@](O)(CC(=O)O)C(=O)O [Compound 87] | > 1000 nM | 38 nM
31 | CCCCCCCC(=O)CCCCCC/C=C/[C@H](C(=O)N[C@@H](Cc1ccc(C)cc1)C(=O)O)[C@@](O)(CC(=O)O)C(=O)O [Compound 16] | > 5000 nM | 10 nM
32 | CCCCCCCC(=O)CCCCCC/C=C/[C@H](C(=O)NC(Cc1ccc(Cl)cc1)C(=O)O)[C@@](O)(CC(=O)O)C(=O)O (stereo partly shown) [Compound 34] | > 1000 nM | 55 nM
33 | CCCCCCCC(=O)CCCCCC/C=C/[C@H](C(=O)NC(Cc1ccc(OC)cc1)C(=O)O)[C@@](O)(CC(=O)O)C(=O)O (stereo partly shown) [Compound 43] | > 1000 nM | 3 nM
34 | COCCCCCCC(=O)CCCCCC/C=C/[C@H](C(=O)N[C@@H](Cc1ccc(OCCC(C)C)cc1)C(=O)O)[C@@](O)(CC(=O)O)C(=O)O [Compound 99] | > 1000 nM | 56 nM
35 | CCCCCCCC(=O)CCCCCC/C=C/[C@H](C(=O)N[C@@H](Cc1ccc(-c2cccc(OC)c2)cc1)C(=O)O)[C@@](O)(CC(=O)O)C(=O)O [Compound 62] | > 1000 nM | 2 nM
36 | CCCCCCCC(=O)CCCCCC/C=C/[C@H](C(=O)N[C@@H](Cc1ccc(-c2ccc(C(F)(F)F)cc2)cc1)C(=O)O)[C@@](O)(CC(=O)O)C(=O)O [Compound 60] | > 1000 nM | 8 nM
37 | CCCCCCCC(=O)CCCCCC/C=C/[C@H](C(=O)N[C@@H](Cc1ccc(CCCCC)cc1)C(=O)O)[C@@](O)(CC(=O)O)C(=O)O [Compound 26] | > 1000 nM | 17 nM
38 | CCCCCCCC(=O)CCCCCC/C=C/[C@H](C(=O)N[C@@H](Cc1ccc(OCc2cccnc2)cc1)C(=O)O)[C@@](O)(CC(=O)O)C(=O)O [Compound 85] | > 1000 nM | 1 nM
39 | C#CCOc1ccc(C[C@H](NC(=O)[C@@H](/C=C/CCCCCCC(=O)CCCCCCC)[C@@](O)(CC(=O)O)C(=O)O)C(=O)O)cc1 [Compound 105] | > 1000 nM | 3 nM
40 | C=CCOc1ccc(CC(NC(=O)[C@@H](/C=C/CCCCCCC(=O)CCCCCCC)[C@@](O)(CC(=O)O)C(=O)O)C(=O)O)cc1 (stereo partly shown) [Compound 42] | > 1000 nM | 1 nM
41 | CCCCCCCC(=O)CCCCCC/C=C/[C@H](C(=O)N[C@@H](Cc1ccc(Oc2ccccc2)cc1)C(=O)O)[C@@](O)(CC(=O)O)C(=O)O [Compound 15] | > 5000 nM | 2 nM
